Reference: patent US6812037B1, “Antimitotic compounds” (The University of British Columbia, priority 1999, dated 2004)

Key:
MCF-7 cells [1] = assay: ELICA of mitotic cells (Enzyme-Linked Immuno-Cytochemical assay, TG-3 antibody); type: cell-based, human
Experimental: (§1) Cell Culture and Treatment. Human breast carcinoma MCF-7 cells were cultured as monolayers. The cells were seeded at 10,000 per well of 96-well polystyrene tissue culture plates (Falcon) in 200 μl medium and were allowed to grow overnight. Crude extracts of marine organisms were then added at about 10 μg/ml or 1 μg/ml, from 1000-fold stocks in dimethylsulfoxide (DMSO). Untreated samples received an equivalent amount of DMSO and several as negative controls. Cells treated with 100 ng/ml nocodazole (Sigma), from a 1000-fold stock in DMSO, served as positive controls. Cells were incubated for 16-20 hours. The relative number of cells in mitosis was then determined by microscopy, by enzyme-linked immunosorbent assay (ELISA) or by an enzyme-linked cytochemical assay (ELICA), as described below.
ELICA of Miltotic Cells. While the ELISA is accurate and reliable, it requires transferring cell lysates to ELISA plates and many solution changes. The assay of this invention is faster and easier to use for drug screening. […] In a preferred assay of this invention, cells are fixed with formaldehyde in their microtiter culture plates and permeabilized with methanol and detergents. The TG-3 primary antibody and HRP-conjugated secondary antibody may be added sequentially but are preferably added simultaneously. Colorimetric detection of HRP activity remains unchanged. This new assay is termed: an Enzyme-Linked Immuno-Cytochemical assay (ELICA).
After incubation with marine extracts, the medium was withdrawn carefully using a pipetor and 100 μl of 10 mM Tris-HCl (pH 7.4) 150 mM NaCl, containing 3.7% formaldehyde was added to fix the cells for 30 minutes at 4° C. The fixative was removed and replaced with 100 μl of cold (−20° C.) methanol for 5 minutes to permeabilize the fixed cells. The methanol was removed and the wells were rinsed briefly with 200 μl antibody buffer. Then, 100 μl antibody buffer containing 0.1-0.15 μg/ml TG-3 monoclonal antibody and HRP-conjugated goat anti-mouse IgM secondary antibody at a 50-fold dilution, was added to 16-20 hours at 4° C. The plates were washed twice with 200 μl 10 mM Tris-HCl pH 7.4, 0.02% Tween 20™. Then, 100 μl of 120 mM Na2HPO4, 100 mM citric acid (pH 4.0) containing […] 2,2′-azino-bis(-3ethylbenz-thiazoline-6-sulfonic acid) and 0.01% hydrogen peroxide was added for 1 hour at room temperature and the absorbance at 405 nm was measured.

MCF-7 cells [2] = assay: Mitotic arrest of MCF-7 cells, counting mitotic cells by microscopy (mitotic spreads); type: cell-based, human
Experimental: as §1
Screens for Antimitotic Agents. MCF-7 cells were incubated for 20 hours with different concentrations of the antimitotic drug paclitaxel, and the proportion of cells arrested in mitosis was measured by counting mitotic cells in the microscope, and by ELISA. Paclitaxel induced mitotic arrest in a concentration-dependent manner with half-maximal activity at 10 nM measured by microscopy (FIG. 1A) and at 4 nM measured by ELISA (FIG. 1B, □)
Further comparison of the antimitotic activities of eleutherobin and desmethyleleutherobin was done using microscopic examination of a standard cell spread.

[3] = test system: SCCVII squamous cell carcinoma; assay: In vivo antimitotic/anticancer activity, tumor cell survival by colony formation; parameters: species or system C3H mice
Experimental: In Vivo Antimitotic/Anticancer Activity. C3H mice of approximately 26 g bearing SCCVII squamous cell carcinoma (tumor size approximately 0.45 g) were injected intraperitoneally with desmethyleleutherobin. 24 hours later, the mice were intravenously injected with Hoechst 33342™ and then sacrificed. The tumors were removed and single cell suspensions prepared and sorted on the basis of a concentration gradient of Hoechst 33342™, to provide cells sorted according to varying distance from the blood supply. The cells were plated and survival analyzed by observing colony formation.

MCF-7 cells [4] = assay: Western blot with TG-3 antibody, densitometric scanning of the 105-kDa band; type: cell-based, human; settings: cells treated for 20 hours with nocodazole vs cycling MCF-7 cells
Experimental: The TG-3 monoclonal antibody, originally described as a marker of Alzheimer's disease, is highly specific for mitotic cells. […] In Western blots, the antibody reacts with a 105-kDa protein identified as a mitotically phosphorylated form of nucleolin, that is present in abundance in extracts of cells treated for 20 hours with the antimitotic agent nocodazole but present at only low levels in extracts from cycling MCF-7 cells. Densitometric scanning of the bands on Western blots in these examples show a 27-fold difference in intensity between nocodazole-treated and untreated cells, corresponding well to the difference in the number of mitotic cells in the two samples: 80% for the nocodazole-treated sample and 3% for the untreated sample, as measured by microscopy.

MCF-7 cells [5] = assay: ELISA of mitotic cells (TG-3 antibody); type: cell-based, human
Experimental: TG-3 also recognizes mitotic cells in EUISA. In the ELISA assay, the cells may be grown in multi-well plates, lysed and transferred to protein-binding ELISA plates for adsorption to the plastic surface. The antigen may be detected by incubating with TG-3 antibody, an HRP-conjugated secondary antibody and performing a calorimetric determination of HRP activity.
as §1, with “Cells treated with 100 ng/ml nocodazole (Sigma), from a 1000-fold stock in DMSO, served as positive controls. Cells were incubated for 16-20 hours.” left out
ELISA of Mitotic Cells. […] Finally, 100 μl of 120 mM Na2HPO4, 100 mM citric acid (pH 4.0) containing 0.5 μg/ml 2,2′-azino-bis (3-ethyl-benzthiazoline-6-sulfonic acid) and 0.01% hydrogen peroxide was added for 1 hour at room temperature and absorbance at 405 nm was determined using a Dynex MRX™ plate reader.

[6] = MCF-7 cells, FIG. 2, read-out: IC50, antimitotic activity as determined by ELICA

COC(=O)/C1=C/[C@@H]2[C@@H](C(C)C)CC=C(C)[C@@H]2C[C@H](OC(=O)/C=C/c2cn(C)cn2)[C@]2(C)C=C[C@@]1(O)O2 [Sarcodictyin A, sarcodictyin A]
IC50 (MCF-7 cells [1]; [6]): ~2 µM

CO[C@]12C=C[C@](C)(O1)[C@@H](OC(=O)/C=C\c1cn(C)cn1)C[C@H]1C(C)=CC[C@H](C(C)C)[C@H]1/C=C\2CO[C@@H]1OC[C@@H](O)[C@@H](O)[C@@H]1OC(C)=O [Z-eleutherobin]
IC50 (MCF-7 cells [1]; [6]): ~0.25 µM

CO[C@]12C=C[C@](C)(O1)[C@@H](OC(=O)/C=C/c1cn(C)cn1)C[C@@H]1[C@H](/C=C\2CO[C@@H]2OC[C@@H](O)[C@@H](O)[C@@H]2OC(C)=O)[C@@H](C(C)C)C=C[C@@]1(C)O [caribaeoside]
IC50 (MCF-7 cells [1]; [6]): ~20 µM

CC(=O)O[C@@H]1[C@H](OC/C2=C/[C@@H]3[C@@H](C(C)C)CC=C(C)[C@@H]3C[C@H](OC(=O)/C=C/c3cn(C)cn3)[C@]3(C)C=C[C@@]2(O)O3)OC[C@@H](O)[C@H]1O [desmethyleleutherobin]
IC50 (MCF-7 cells [2]; MCF-7 cells, FIG. 4, read-out: IC50, antimitotic activity by microscopic examination of a standard cell spread): ~0.025 µM
IC50 (MCF-7 cells [1]; [6]): ~0.02 µM
overt toxicity to the mice ([3]; intraperitoneal injection, C3H mice bearing SCCVII tumor): no overt toxicity
tumor cells killed ([3]; intraperitoneal, doses of about 100 μg or more per mouse, 24 hours, FIG. 5): about 90%

CO[C@]12C=C[C@](C)(O1)[C@@H](OC(=O)/C=C/c1cn(C)cn1)C[C@H]1C(C)=CC[C@H](C(C)C)[C@H]1/C=C\2COC1OCC(O)C(O)C1OC(C)=O (stereo partly drawn) [eleutherobin]
IC50 (MCF-7 cells [2]; Homo sapiens, MCF7, read-out: IC50, antimitotic activity by microscopic examination of a standard cell spread): ~0.2 µM
IC50 (MCF-7 cells [1]; Homo sapiens, MCF7, read-out: IC50, antimitotic activity as determined by ELICA): ~0.1 µM

CO[C@]12C=C[C@](C)(O1)[C@@H](OC(=O)/C=C/c1cn(C)cn1)C[C@H]1C(C)=CC[C@H](C(C)C)[C@H]1/C=C\2CO[C@@H]1OC[C@@H](O)[C@@H](OC(C)=O)[C@@H]1O [isoeleutherobin A]
IC50 (MCF-7 cells [1]; [6]): ~0.05 µM

COC(=O)Nc1nc2ccc(C(=O)c3cccs3)cc2[nH]1 [nocodazole]
number of mitotic cells as measured by microscopy (MCF-7 cells [2]; cells treated for 20 hours with nocodazole, untreated sample 3%): 80%
difference in band intensity between treated and untreated cells (TG-3 Western blot) (MCF-7 cells [4]): 27 fold

CC(=O)O[C@H]1C(=O)[C@@]2(C)[C@H]([C@H](OC(=O)c3ccccc3)[C@]3(O)C[C@H](OC(=O)[C@H](O)[C@@H](NC(=O)c4ccccc4)c4ccccc4)C(C)=C1C3(C)C)[C@]1(OC(C)=O)CO[C@@H]1C[C@@H]2O [paclitaxel]
EC50 (MCF-7 cells [2]; Homo sapiens, MCF7, MCF-7 cells, 20 hours incubation, FIG. 1A, read-out: half-maximal activity, mitotic arrest measured by microscopy): 0.01 µM
EC50 (MCF-7 cells [1]; Homo sapiens, MCF7, MCF-7 cells, FIG. 1B, read-out: half-maximal activity, mitotic arrest detected by ELICA): 0.0015 µM
EC50 (MCF-7 cells [5]; Homo sapiens, MCF7, 20 hours incubation, FIG. 1B, read-out: half-maximal activity, mitotic arrest measured by ELISA): 0.004 µM

WF-1360 [Compound A]
IC50 (MCF-7 cells [5]; read-out: half-maximal antimitotic activity (IC50) as determined by ELISA): 0.052 µM

caribaeolin
IC50 (MCF-7 cells [1]; [6]): ~20 µM

desacetyleleutherobin
IC50 (MCF-7 cells [1]; [6]): ~0.4 µM
